What all share (assay type): functional
The test system of assay [1] is HT-29. In words: Cytotoxicity against human HT-29 cells assessed as cellular growth at 10 uM by SRB assay. (In general: Sulforhodamine B stains cellular protein and so reports cell mass.)
In assay [2] the test system is SF-539. As to the kind of experiment: Cytotoxicity against human SF539 cells assessed as cellular growth at 10 uM by SRB assay.
The subject of assay [3] is M14. In words: Cytotoxicity against human M14 cells assessed as cellular growth at 10 uM by SRB assay.
Assay [4] concerns HCT-116. As to the kind of experiment: Cytotoxicity against human HCT116 cells assessed as cellular growth at 10 uM by SRB assay.
Assay [5] deals with ACHN. As to the kind of experiment: Cytotoxicity against human ACHN cells assessed as cellular growth at 10 uM by SRB assay.
The subject of assay [6] is CAKI-1. In words: Cytotoxicity against human Caki1 cells assessed as cellular growth at 10 uM by SRB assay.
The test system of assay [7] is HL-60(TB). In words: Cytotoxicity against human HL-60(TB) cells assessed as cellular growth at 10 uM by SRB assay.
Assay [8] has as its system SK-MEL-28. As to the kind of experiment: Cytotoxicity against human SK-MEL-28 cells assessed as cellular growth at 10 uM by SRB assay.
The test system of assay [9] is OVCAR-3. In words: Cytotoxicity against human OVCAR3 cells assessed as cellular growth at 10 uM by SRB assay.
Assay [10] relates to SF-268. In words: Cytotoxicity against human SF268 cells assessed as cellular growth at 10 uM by SRB assay.
Assay [11] concerns LOX IMVI. As to the kind of experiment: Cytotoxicity against human LOXIMVI cells assessed as cellular growth at 10 uM by SRB assay.
The test system of assay [12] is SW-620. As to the kind of experiment: Cytotoxicity against human SW620 cells assessed as cellular growth at 10 uM by SRB assay.
Assay [13] concerns NCI-H226. As to the kind of experiment: Cytotoxicity against human NCI-H226 cells assessed as cellular growth at 10 uM by SRB assay.
Assay [14] has as its system MDA-MB-435. As to the kind of experiment: Cytotoxicity against human MDA-MB-435 cells assessed as cellular growth at 10 uM by SRB assay.
For assay [15], the system named is HOP-62. As to the kind of experiment: Cytotoxicity against human HOP62 cells assessed as cellular growth at 10 uM by SRB assay.
Assay [16] has as its system Hs-578T. In words: Cytotoxicity against human Hs578T cells assessed as cellular growth at 10 uM by SRB assay.
Assay [17] has as its system MDA-MB-231. In words: Cytotoxicity against human MDA-MB-231 cells assessed as cellular growth at 10 uM by SRB assay.
For assay [18], the system named is MOLT-4. As to the kind of experiment: Cytotoxicity against human MOLT4 cells assessed as cellular growth at 10 uM by SRB assay.
The subject of assay [19] is Malme-3M. As to the kind of experiment: Cytotoxicity against human MALME-3M cells assessed as cellular growth at 10 uM by SRB assay.
Assay [20] concerns K562. As to the kind of experiment: Cytotoxicity against human K562 cells assessed as cellular growth at 10 uM by SRB assay.

Data on eleven compounds can be found in ChEMBL document CHEMBL2202954, “The effect of PLC-γ2 inhibitors on the growth of human tumour cells” (2012).

For `O=C(NCCc1ccc(Cl)cc1)c1[nH]c2ccccc2c1Cl`, the Activity in assay [1] is given as 100.35%; in assay [2], 101.07%; in assay [3], 98.43%; in [4], 98.39%; in [5] it was 99.57%; in assay [6], 96.12%. The Activity in assay [7] was 94.84%; in [8], 109.77%; in assay [9] it was 100.99%; in assay [10], 97.34%; in assay [11] it was 96.1%; in assay [12], 92.87%. The Activity in assay [13] was 89.37%; in [14], 98.17%; in assay [15] it was 85.04%; in [16] it was 94.53%; in assay [17], 95.77%; in assay [18] it was 77.08%. Moreover, the Activity in [19] is 107.52%; in assay [20], 67.44%.

As for `O=C(NCCc1ccccc1)c1[nH]c2ccccc2c1Cl`, the Activity in [1] is 100.49%; in assay [2], 102.52%; in assay [3], 106.45%; in assay [4] it was 87.15%; in assay [5], 90.71%; in assay [6], 78.12%. The Activity in assay [7] came out at 90.02%; in [8], 106.79%; in assay [9] it was 72.81%; in [10] it was 92.71%; in [11] it was 89.47%; in [12], 92.61%. The Activity in assay [13] was 73.27%; in assay [14], 96.07%; in assay [15], 86.43%; in [16], 97.21%; in assay [17], 80.08%; in [18], 70.04%. Moreover, the values for the Activity in [19] and in [20] were 109.22% and 74.92%, respectively.

For the compound `Cc1c(OCC(=O)c2ccccc2)ccc2c1oc(=O)c1ccccc12`, the Activity in assay [1] is 100.17%; in assay [2], 104.56%; in assay [3], 118.87%; in assay [4] it was 107.52%; in [5], 114.47%; in [6], 99.74%. Further, the Activity in assay [7] is listed as 111.36%; in [8] it was 113.56%; in assay [9] it was 102.65%; in assay [10], 100.71%; in [11] it was 98.34%; in [12] it was 95.18%. Besides, the Activity in assay [13] is reported as 99.25%; in assay [14], 98.4%; in [15], 105.3%; in assay [16], 103.5%; in [17], 104.28%; in [18], 90.5%. Besides, the Activity is 120.27% in assay [19] and 100.66% in [20].

On to `Cc1ccc(NC(=O)c2sc3nc4c(cc3c2N)C(=O)CCC4)cc1Cl`, for which the Activity in [1] was determined as 97.53%; in assay [2], 102.38%; in [3] it was 121.85%; in [4], 105.04%; in assay [5], 109.05%; in assay [6], 85.93%. In addition, the Activity is 105.82% in assay [7]; 108.49% in assay [8]; 112.77% in assay [9]; 115.11% in assay [10]; 99.16% in assay [11]; 112.63% in assay [12]. The Activity in assay [13] is reported as 101.89%; in [14], 99.15%; in [15], 110.02%; in assay [16], 112.53%; in assay [17], 113.04%; in [18], 107.73%. In addition, the Activity in [19] is reported as 112.49%; in assay [20], 92.98%.

On to `CC1(C)CCc2cc(-c3ccn(S(=O)(=O)c4cccc(C(F)(F)F)c4)n3)ccc2O1`, for which the Activity was found to be 71.22% in assay [1]; 116.68% in [2]; 97.31% in [3]; 74.24% in [4]; 109.2% in assay [5]; 105.83% in assay [6]. For the same compound, the Activity in [7] came out at 72.67%; in [8] it was 105.56%; in assay [9], 101.58%; in assay [10], 102.56%; in [11] it was 92.84%; in assay [12] it was 88.93%. The Activity was determined as 90.51% in assay [13]; 97.38% in assay [14]; 102.63% in [15]; 107.85% in [16]; 95.04% in assay [17]; 66.45% in assay [18]. For the same compound, the Activity in assay [19] is given as 102.22%; in assay [20] it was 63.16%.

With `Cc1ccc(NC(=O)c2sc3nc(-c4cccs4)ccc3c2N)cc1C`, the Activity in [1] came to 94.6%; in assay [2] it was 118.53%; in assay [3], 114.64%; in assay [4], 106.03%; in assay [5], 125.53%; in assay [6], 131.91%. Also, the Activity in assay [7] is on record as 82.68%; in [8], 113.95%; in [9], 98.63%; in [10] it was 107.88%; in [11], 101.98%; in assay [12], 101.23%. Besides, the Activity in assay [13] was 107.93%; in [14], 101.83%; in [15] it was 103.01%; in assay [16], 110.72%; in assay [17], 116.18%; in [18], 80.3%. For the same compound, the Activity came to 118.51% in [19] and 90.31% in [20].

Take `COc1ccc(Cl)cc1C(=O)Nc1nc2ccc(Cl)cc2s1`: the Activity in assay [1] came to 109.45%; in assay [2], 86.39%; in [3] it was 95.14%; in assay [4], 53.23%; in [5] it was 85.89%; in [6] it was 84.36%. In addition, the Activity in [7] is 103.5%; in [8], 105.02%; in assay [9] it was 102.8%; in assay [10], 83.22%; in assay [11], 81.24%; in assay [12], 100.98%. Also, the Activity worked out at 89.17% in [13]; 97.59% in assay [14]; 89.42% in assay [15]; 102.47% in assay [16]; 70.89% in assay [17]; 95.65% in assay [18]. For the same compound, the Activity in [19] stood at 83.31%; in assay [20], 86.76%.

`O=c1/c(=C/c2ccc(Cl)cc2Cl)sc2nc(-c3ccccc3)nn12`: the Activity in [1] is on record as 115.55%; in [2], 121.38%; in [3], 103.59%; in [4], 106.75%; in assay [5] it was 107.07%; in assay [6] it was 116.76%. Also, the Activity came out at 91.7% in assay [7]; 117.34% in assay [8]; 116% in assay [9]; 107.16% in [10]; 95.09% in assay [11]; 107.15% in assay [12]. Also, the Activity in assay [13] is recorded as 98.92%; in assay [14], 106.5%; in assay [15], 120.5%; in assay [16] it was 98.17%; in assay [17], 98.54%; in assay [18], 88.5%. Further, the Activity was found to be 136.07% in assay [19] and 98.67% in assay [20].

Take `CC1(C)CC(=O)c2cc3c(N)c(C(=O)Nc4ccc(F)cc4)sc3nc2C1`: the Activity in assay [1] was found to be 110.56%; in assay [2] it was 96.07%; in assay [3], 121.48%; in [4] it was 114.92%; in assay [5], 112.82%; in assay [6], 98.34%. Besides, the Activity in assay [7] came to 115.83%; in assay [8], 113.65%; in assay [9], 117.81%; in assay [10], 124.1%; in [11] it was 102.36%; in [12], 106.24%. The Activity in assay [13] came out at 102.68%; in assay [14], 103.15%; in [15], 114.29%; in assay [16], 111.09%; in assay [17] it was 112.36%; in assay [18], 121.66%. Also, the Activity in [19] was 116.52%; in assay [20] it was 106.71%.

For the compound `CC1(C)CC(=O)c2cc3c(N)c(C(=O)NCc4ccccc4)sc3nc2C1`, the Activity stood at 106.09% in assay [1]; 96.57% in assay [2]; 98.42% in assay [3]; 103.66% in assay [4]; 102.79% in assay [5]; 110.35% in assay [6]. Also, the Activity in [7] is recorded as 120.86%; in assay [8], 102.38%; in assay [9], 115.21%; in assay [10], 102.72%; in assay [11], 102.22%; in [12], 111.03%. Further, the Activity is 86.42% in assay [13]; 91.3% in [14]; 95.84% in assay [15]; 123.14% in assay [16]; 101.13% in assay [17]; 124.23% in assay [18]. For the same compound, the Activity stood at 104.51% in assay [19] and 117.84% in [20].

Regarding `O=C(Nc1ccc(S(=O)(=O)Nc2nccs2)cc1)c1cccs1`, the Activity worked out at 101.43% in [1]; 105.81% in assay [2]; 110.69% in assay [3]; 108.46% in assay [4]; 116.25% in assay [5]; 99.02% in assay [6]. Besides, the Activity in [7] is reported as 85.93%; in assay [8] it was 115.4%; in assay [9], 116.67%; in assay [10] it was 114.27%; in [11], 110.65%; in assay [12], 111.55%. The Activity in [13] worked out at 108.77%; in assay [14] it was 110.15%; in [15] it was 114.96%; in assay [16], 122.2%; in assay [17], 103.15%; in assay [18], 95.09%. The values for the Activity in assay [19] and in [20] were 104.82% and 104.24%, respectively.
